Source: patent US20260315434A1, “USE OF GUAIACOL SESQUITERPENE LACTONE DERIVATIVES” (NANJING UNIVERSITY OF CHINESE MEDICINE, priority 2023, published 2026)
Values after ≈ are worked out from the molar mass of the structure shown. Values belong to the compound of their own block, whether it stands above or below them.

What was measured:
[1] = tested on: mouse ear atopic dermatitis; experiment: MC903-induced atopic dermatitis of the ear, ointment: ear thickness, dermatitis score, lesions; type: in vivo; conditions: for inhibition rate of ear thickness increase: final day
Procedure: (1) Preparation of Oil Phase: Weigh white petrolatum, light liquid paraffin, glyceryl monostearate, ethylparaben, and cetyl alcohol. Heat to 65° C. while stirring until dissolved. Slowly add the dissolved active pharmaceutical ingredient (API) while continuing to stir until uniformly mixed. Set aside.
(2) Aqueous Phase Preparation: Weigh purified water and Tween 80, heat to 70° C., stir to dissolve, and set aside;
(3) Emulsification: Slowly add the aqueous phase to the oil phase while maintaining 65° C., homogenize, and continue stirring for 30 min;
(4) Cooling: Stop heating, continue stirring, gradually reduce to room temperature, cool to form an ointment, and fill containers.
(§1) Dissolve these substances in a small amount of propylene glycol, then place the resulting solution into the aforementioned pre-cooled blank ointment base. Finally, add water to make the total mass up to 10 g, and grind the mixture thoroughly in a mortar.
(§2) Except for the Normal group, all other groups underwent AD modeling: 20 μL of MC903 solution (also known as calcipotriol, purchased from Shanghai Yuanye Biotechnology Co., Ltd., used for inducing atopic models) was applied to each mouse's ears once daily for 14 consecutive days to induce the atopic dermatitis model. […] Measure ear thickness changes every 2 days using an electronic caliper before modeling and after treatment initiation.
(§3) Skin Lesion Severity Score: Daily skin lesion severity was assessed in mice using the following criteria, primarily encompassing four symptoms: 1) erythema/hemorrhage; 2) dryness; 3) desquamation/erosion; 4) edema. Each symptom was scored from 0 to 3 based on lesion severity: no symptoms=0 points, mild=1 point, moderate=2 points, severe=3 points. […] Higher scores indicated more severe lesions, with a maximum score of 12. Statistical analysis was performed on the data.

[2] = tested on: inflammatory markers in the ears of AD mice; experiment: MC903-induced atopic dermatitis of the ear, ointment: mRNA of inflammatory markers; type: in vivo, mouse
Procedure: as §1, §2

[3] = tested on: dorsal atopic dermatitis; experiment: MC903-induced atopic dermatitis of the dorsum, ointment: skin thickness, dermatitis score, lesions; type: in vivo, mouse; conditions: for inhibition rate of dorsal skin thickness increase: final day
Procedure: as §1
Except for the Normal group, all other groups underwent AD modeling: 48 hours prior to the experiment, hair on the dorsal neck region was meticulously removed using clippers and depilatory cream. Following modeling initiation, 20 μL of MC903 solution was applied once daily to the dorsal neck region for 14 consecutive days to induce the AD model. […] Model and control group mice received daily application of blank ointment. Twenty-four hours after completing the 14-day modeling period, photographs of skin lesions were taken, and skin lesion and blood samples were collected.
as §3

[4] = tested on: T cells / MDSCs; experiment: Promotion of T cell proliferation in a co-culture model of MDSCs and T cells; type: cell-based, mouse; conditions: for activation at 1 µM: Mus musculus, T-cell, 12 h, read-out: T-cell proliferation rate (%), 1 μM, MDSCs treated 12 hours, co-culture of MDSCs and T cells, compared to the control group
Method in brief: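 Bone-marrow MDSCs, after compound treatment, were co-cultured 48 h at 1:1 with CFDA-SE-labelled (10 μM solution), activated splenic T cells. Proliferation of CD3+ T cells was read by flow cytometry.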

[5] = tested on: MDSCs; experiment: Inhibition of MDSC chemotaxis (Transwell, tumor-conditioned medium); type: cell-based, mouse; set-up: inhibition of MDSC chemotaxis compared to Arg: dose or concentration left out as unconfirmed
Procedure: Hepa1-6 mouse hepatocellular carcinoma cells were uniformly seeded into 6-well plates. After cells reached confluence, supernatant was aspirated, and 1-1.5 mL fresh medium was added to each well. Following 24 h culture, supernatant was collected, centrifuged at 1600 rpm for 5 min, aspirated, and filtered through a 0.22 μm membrane to obtain tumor-conditioned medium for subsequent use. […] Under sterile conditions, remove the tibia, cut both ends of the bone, and aspirate the bone marrow into a 1 mL syringe. Repeat flushing into a 15 mL centrifuge tube. Centrifuge at 1600 rpm for 5 min to collect bone marrow cells. Wash twice with 1×PBS. […] Count cells, adjust density to 1×10^6 cells/mL, and uniformly seed into 24-well plates at 300 μL per well. […] Centrifuge at 1600 rpm for 5 min, remove supernatant, resuspend cells in 300 μL fresh medium, and place into Transwell chambers. […] Co-culture for 24 h.

[6] = tested on: CCR2 mRNA; experiment: Inhibition of CCR2 mRNA level in MDSCs; type: cell-based; conditions: Mus musculus, 2 h, read-out: Suppression Rate (inhibition of CCR2 mRNA levels)
Procedure: Under sterile conditions, the tibia was removed, both ends of the bone were cut, and bone marrow was repeatedly flushed into a 15 mL centrifuge tube using a 1 mL syringe filled with culture medium. Centrifuge at 1600 rpm for 5 min to collect bone marrow cells. […] Count cells and adjust density to 1×10^6 cells/mL in complete medium. Seed cells uniformly into 6-well plates at 2 mL per well. […] After incubation, collect cells into centrifuge tubes, centrifuge at 1600 rpm for 5 min, wash once with 1×PBS, and add 500 μL RNA extraction reagent to each tube. After centrifugation to obtain the pellet, add 20 μL DEPC-treated water to each tube to dissolve the pellet. Determine RNA concentration and reverse transcribe to cDNA. Add the cDNA, primers, and […] to a 96-well plate. Centrifuge at 4000 rpm for 5 min, then place in a PCR instrument for detection.

[7] = Water solubility testing of compounds (HPLC); conditions: deionized water, water, Water-solubility, 37 °C
[8] = tested on: tumor cells; conditions: in vitro cell models, result in words; cited from earlier work
[9] = tested on: Hepa1-6 transplanted tumor; conditions: 30 mg/kg i.p., 14 consecutive days; cited from earlier work
[10] = tested on: HepG2 and Huh7 HCC cell transplanted tumor; conditions: HepG2 and Huh7 transplanted tumor models; cited from earlier work
[11] = Mus musculus, read-out: Suppression Rate (MDSC chemotaxis)

- solubility [7]: 1140 µg/mL (≈ 4.35 mM)
SMILES: C=C1C(=O)O[C@@H]2[C@@H]3[C@]4(CC[C@@]3(C)O)C[C@]4(C)CC[C@@H]12 [Compound 1]
- Dermatitis Score, ear ([1]; 0.01% ointment, 7 days, max score 12): 3.50 ± 0.22
- AD-like skin lesions on the ears ([1]; 0.01%, 0.1%, 1% ointment): significantly alleviated
- inhibition rate of ear thickness increase ([1]; 0.01% ointment): 71%
- inhibition rate of ear thickness increase ([1]; 0.1% ointment): 71%
- inhibition rate of ear thickness increase ([1]; 1% ointment): 80%
- I113 mRNA expression, ear ([2]; 0.01% ointment): 3.30 ± 0.47
- I131 mRNA expression, ear ([2]; 0.1% ointment): 1.64 ± 0.25
- I131 mRNA expression, ear ([2]; 1% ointment): 1.10 ± 0.19
- AD-like skin lesions on the backs ([3]; 0.01%, 0.1%, 1% ointment): significantly alleviated
- Dermatitis Score, back ([3]; 0.1% ointment, 7 days, max score 12): 2.50 ± 0.22
- inhibition rate of dorsal skin thickness increase ([3]; 0.01% ointment): 66%
- inhibition rate of dorsal skin thickness increase ([3]; 0.1% ointment): 72%
- inhibition rate of dorsal skin thickness increase ([3]; 1% ointment): 83%
- T cell proliferation in MDSC-T cell co-culture ([4]; 1 μM, result in words): significantly enhanced T-cell proliferation
- activation at 1 µM [4]: > 40%
- inhibition at 1 µM [5, 11]: 42.3%
- inhibition at 10 µM [5, 11]: 83.3%
- inhibition of MDSC chemotaxis compared to Arg ([5]; result in words): superior inhibition rates
- inhibition at 1 µM [6]: 35.2%
- inhibition at 10 µM [6]: 76.5%

SMILES: C=C1C(=O)O[C@H]2[C@H]1CCC(C)=C1CC[C@@](C)(O)[C@@H]12 [MCL, Micheliolide]
- activation at 1 µM [4]: 20 to 40%
- IC50, tumor cell growth inhibition [8]: in the micromolar range
- tumor weight inhibition rate [9]: 50%
- effective dose, intraperitoneal [10]: 25 mg/kg
